The values below come from PubChem BioAssay AID1259407 (Chemical Carcinogenesis Research Information System (CCRIS), 2018).

Each structure is given as a SMILES string. Active and inactive are the calls of the source. How the calls were made is not given here.

For this series, the system named is CCRIS mutagenicity, Ames/micronucleus/aberration tests. Briefly: CCRIS mutagenicity studies.
Where [1] appears, read: Test System: AMES SALMONELLA TYPHIMURIUM, Strain/Indicator: TA98, Metabolic Activation: HAMSTER, LIVER, S-9, AROCLOR 1254 (10%), Method: PREINCUBATION
[2] abbreviates: Test System: AMES SALMONELLA TYPHIMURIUM, Strain/Indicator: TA98, Metabolic Activation: NONE, Method: STANDARD PLATE.
The mark [3] stands for this setting: Test System: AMES SALMONELLA TYPHIMURIUM, Strain/Indicator: TA98, Metabolic Activation: RAT, LIVER, S-9, AROCLOR 1254 (10%), Method: PREINCUBATION
The mark [4] stands for this setting: Test System: AMES SALMONELLA TYPHIMURIUM, Strain/Indicator: TA100, Metabolic Activation: HAMSTER, LIVER, S-9, AROCLOR 1254 (10%), Method: PREINCUBATION
Setting [5] is: Test System: AMES SALMONELLA TYPHIMURIUM, Strain/Indicator: TA100, Metabolic Activation: RAT, LIVER, S-9, AROCLOR 1254 (10%), Method: PREINCUBATION
Where [6] appears, read: Test System: AMES SALMONELLA TYPHIMURIUM, Strain/Indicator: TA100, Metabolic Activation: RAT, LIVER, S-9, AROCLOR 1254, Method: STANDARD PLATE.
Setting [7] is: Test System: AMES SALMONELLA TYPHIMURIUM, Strain/Indicator: TA1535, Metabolic Activation: HAMSTER, LIVER, S-9, AROCLOR 1254 (10%), Method: PREINCUBATION
Where [8] appears, read: Test System: AMES SALMONELLA TYPHIMURIUM, Strain/Indicator: TA1535, Metabolic Activation: NONE, Method: PREINCUBATION
[9] abbreviates: Test System: AMES SALMONELLA TYPHIMURIUM, Strain/Indicator: TA1535, Metabolic Activation: RAT, LIVER, S-9, AROCLOR 1254 (10%), Method: PREINCUBATION
Where [10] appears, read: Test System: AMES SALMONELLA TYPHIMURIUM, Strain/Indicator: TA1537, Metabolic Activation: HAMSTER, LIVER, S-9, AROCLOR 1254 (10%), Method: PREINCUBATION
Where [11] appears, read: Test System: AMES SALMONELLA TYPHIMURIUM, Strain/Indicator: TA1537, Metabolic Activation: NONE, Method: PREINCUBATION
[12] abbreviates: Test System: AMES SALMONELLA TYPHIMURIUM, Strain/Indicator: TA1537, Metabolic Activation: RAT, LIVER, S-9, AROCLOR 1254 (10%), Method: PREINCUBATION
Setting [13] is: Test System: AMES SALMONELLA TYPHIMURIUM, Strain/Indicator: TA98, Metabolic Activation: RAT, LIVER, S-9, AROCLOR 1254, Method: STANDARD PLATE.
The mark [14] stands for this setting: Test System: AMES SALMONELLA TYPHIMURIUM, Strain/Indicator: TA100, Metabolic Activation: NONE, Method: STANDARD PLATE.

For `O=C(O)c1ccc([N+](=O)[O-])cc1`, the mutagenic call runs as follows: under setting [1], “inactive; negative”; under setting [2], “active; positive”; under setting [3], “inactive; negative”; (Test System: AMES SALMONELLA TYPHIMURIUM, Strain/Indicator: TA98, Metabolic Activation: RAT, LIVER, S-9, KANECHLOR 500, Method: PREINCUBATION) “inactive; negative”; under setting [4], “active; positive”; (Test System: AMES SALMONELLA TYPHIMURIUM, Strain/Indicator: TA100, Metabolic Activation: HAMSTER, LIVER, S-9, AROCLOR 1254, FLAVIN MONONUCLEOTIDE, Method: PREINCUBATION) “active; positive”. For the same compound, the mutagenic call (Test System: AMES SALMONELLA TYPHIMURIUM, Strain/Indicator: TA100, Metabolic Activation: HAMSTER, LIVER, S-9, AROCLOR 1254, Method: PREINCUBATION) was “active; positive”; the mutagenic call under setting [5] is “active; positive”; the mutagenic call (Test System: AMES SALMONELLA TYPHIMURIUM, Strain/Indicator: TA100, Metabolic Activation: RAT, LIVER, S-9, AROCLOR 1254, FLAVIN MONONUCLEOTIDE, Method: PREINCUBATION) was “active; positive”; the mutagenic call under setting [6] is “inactive; negative”; the mutagenic call (Test System: AMES SALMONELLA TYPHIMURIUM, Strain/Indicator: TA100, Metabolic Activation: RAT, LIVER, S-9, KANECHLOR 500, Method: PREINCUBATION) was “active; positive”; the mutagenic call under setting [7] was “inactive; negative”. The mutagenic call reads like this: under setting [8], “inactive; negative”; under setting [9], “inactive; negative”; under setting [10], “inactive; negative”; under setting [11], “inactive; negative”; under setting [12], “inactive; negative”; (Test System: AMES SALMONELLA TYPHIMURIUM, Strain/Indicator: TA1538, Metabolic Activation: NONE, Method: PREINCUBATION) “active; positive”.
For the compound `Cc1nc2c(c3[nH]c4ccccc4c13)C(=O)C=CC2=O`, the mutagenic call (Test System: AMES SALMONELLA TYPHIMURIUM, Strain/Indicator: TA97, Metabolic Activation: NONE, Method: STANDARD PLATE) was “inactive; negative”; the mutagenic call (Test System: AMES SALMONELLA TYPHIMURIUM, Strain/Indicator: TA97, Metabolic Activation: RAT, LIVER, S-9, AROCLOR 1254, Method: STANDARD PLATE) is “active; positive”; the mutagenic call under setting [2] is “active; positive”; the mutagenic call under setting [13] is “active; positive”; the mutagenic call under setting [14] is “inactive; negative”; the mutagenic call under setting [6] was “inactive; negative”. Besides, the mutagenic call was “inactive; negative” (Test System: AMES SALMONELLA TYPHIMURIUM, Strain/Indicator: TA102, Metabolic Activation: NONE, Method: STANDARD PLATE) and “inactive; negative” (Test System: AMES SALMONELLA TYPHIMURIUM, Strain/Indicator: TA102, Metabolic Activation: RAT, LIVER, S-9, AROCLOR 1254, Method: STANDARD PLATE).
As to `O=[N+]([O-])c1cc(C(F)(F)F)cc([N+](=O)[O-])c1Cl`, the mutagenic call is, setting by setting: under setting [2], “inactive; negative”; under setting [13], “inactive; negative”; under setting [14], “inactive; negative”; under setting [6], “inactive; negative”; (Test System: AMES SALMONELLA TYPHIMURIUM, Strain/Indicator: TA1535, Metabolic Activation: NONE, Method: STANDARD PLATE) “inactive; negative”; (Test System: AMES SALMONELLA TYPHIMURIUM, Strain/Indicator: TA1535, Metabolic Activation: RAT, LIVER, S-9, AROCLOR 1254, Method: STANDARD PLATE) “inactive; negative”. In addition, the mutagenic call was “inactive; negative” (Test System: AMES SALMONELLA TYPHIMURIUM, Strain/Indicator: TA1537, Metabolic Activation: NONE, Method: STANDARD PLATE); “inactive; negative” (Test System: AMES SALMONELLA TYPHIMURIUM, Strain/Indicator: TA1537, Metabolic Activation: RAT, LIVER, S-9, AROCLOR 1254, Method: STANDARD PLATE); “inactive; negative” (Test System: AMES SALMONELLA TYPHIMURIUM, Strain/Indicator: TA1538, Metabolic Activation: NONE, Method: STANDARD PLATE); “inactive; negative” (Test System: AMES SALMONELLA TYPHIMURIUM, Strain/Indicator: TA1538, Metabolic Activation: RAT, LIVER, S-9, AROCLOR 1254, Method: STANDARD PLATE).
With `CCNC(=O)CNC(=O)C=[N+]=[N-]`, where the note is “Test System: UDS RODENT CELLS, Strain/Indicator: THY INCORP (NON-S-PHASE), Metabolic Activation: NONE, Method: AUTORADIOGRAPHY”, the mutagenic call was “active; positive”.
Turning to `C=CCNCC=C`, the mutagenic call was “inactive; negative” under setting [1]; “inactive; negative” (Test System: AMES SALMONELLA TYPHIMURIUM, Strain/Indicator: TA98, Metabolic Activation: NONE, Method: PREINCUBATION); “inactive; negative” under setting [3]; “inactive; negative” under setting [4]; “inactive; negative” (Test System: AMES SALMONELLA TYPHIMURIUM, Strain/Indicator: TA100, Metabolic Activation: NONE, Method: PREINCUBATION); “inactive; negative” under setting [5]. Further, the mutagenic call is, setting by setting: under setting [7], “inactive; negative”; under setting [8], “inactive; negative”; under setting [9], “inactive; negative”; under setting [10], “inactive; negative”; under setting [11], “inactive; negative”; under setting [12], “inactive; negative”.
Turning to `N.NC1CCCC1.O=C([O-])CC(O)C(=O)[O-].[Pt+2]` (stereo not given), for the setting “End Point: IN VIVO MICRONUCLEUS, Test System: BONE MARROW, Species: MOUSE, Strain/Sex: WILD TYPE/MALE, Route: INTRAPERITONEAL”, the mutagenic call was “active; positive”.
